# Key:
# [1] = system: benzothiazepine binding site of the L-type calcium channel; assay: Diltiazem binding, L calcium channel; parameters: species or system rat; details: 10 μM, percentage inhibition, [3H]-cis-(+)-diltiazem 5 nM, rat cerebral cortex membranes
# Experimental: Binding Investigations in the L Calcium Channel
# Benzothiazepine Binding Site (Diltiazem Binding)
# The biological membrane material was isolated from the rat cerebral cortex. [^3H]-cis-(+)-diltiazem (5 nM in the assay) was used as ligand. The material was incubated for 20 minutes at 25° C. The radioactivity that is measured in the presence of (±)-diltiazem (10^−6 M in the assay) is defined as non-specific binding. After completion of incubation the non-bound fraction of the radioactive ligand is separated by means of a filtration process using Whatman Glasfiber GF/B membranes. The membranes are washed and the radioactivity is then measured using a β-counter. The method is based on the details published by Schoemaker and Langer (H. Schoemaker and S. Z. Langer (1985) Eur. J. Pharmacol. 111, 273-277).
# (§1) For this purpose IC50 values are obtained, which can be converted to inhibitor constants (Ki) according to the “Cheng-Prusoff equation” (Y. C. Clieng and W. H. Prusoff (1973) Biochem. Pharmacol. 22, 3099-3108). The IC50 values were obtained by means of the computer program “Figure P” (version 6.0, Biosoft, Cambridge, England). Km values were calculated according to Lineweaver and Burk (H. Lineweaver and D. Burk (1934) J. Am. Chem. Soc. 56, 658-666). The “Ligand” computer program (version 4, Biosoft, England) was used to obtain Ken values.
# [2] = target: T1, NA transporter (Rattus norvegicus, UniProt Q63380); assay: synaptosomal noradrenaline uptake inhibition (NA uptake inhibition); assay type: biochemical; details: for inhibition at 1 µM: read-out: NA Uptake Inhibition at 1 μM, 1 μM in the assay, synaptosomes from rat hypothalamus; for NA Uptake Inhibition at 1 μM: 1 μM in the assay, synaptosomes from rat hypothalamus
# T1 construct: synaptosomes are isolated fresh from rat brains; from tissue; host or cells: rat hypothalamus synaptosomes (P2 fraction)
# T1 sequence (Q63380 1-617): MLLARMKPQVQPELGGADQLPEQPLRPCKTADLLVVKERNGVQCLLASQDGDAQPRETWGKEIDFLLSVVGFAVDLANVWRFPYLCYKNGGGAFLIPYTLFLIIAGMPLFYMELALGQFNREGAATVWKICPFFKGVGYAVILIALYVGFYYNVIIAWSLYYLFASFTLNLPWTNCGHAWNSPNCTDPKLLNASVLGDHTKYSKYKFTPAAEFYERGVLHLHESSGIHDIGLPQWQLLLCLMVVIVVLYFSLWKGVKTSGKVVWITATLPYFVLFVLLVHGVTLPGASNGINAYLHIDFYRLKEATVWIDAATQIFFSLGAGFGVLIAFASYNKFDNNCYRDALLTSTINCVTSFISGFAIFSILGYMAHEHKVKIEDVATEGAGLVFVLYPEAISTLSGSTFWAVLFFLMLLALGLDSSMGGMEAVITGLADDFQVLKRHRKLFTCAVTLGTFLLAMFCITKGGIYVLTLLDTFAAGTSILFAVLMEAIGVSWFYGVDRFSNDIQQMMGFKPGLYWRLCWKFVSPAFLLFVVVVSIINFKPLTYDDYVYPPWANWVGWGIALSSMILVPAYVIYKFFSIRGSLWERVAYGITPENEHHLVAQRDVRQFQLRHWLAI
# Experimental: In order to carry out these in vitro studies, synaptosomes are isolated fresh from rat brains. In each case a so-called “P2” fraction is used, which is prepared according to the protocol of Gray and Whittaker (E. G. Gray and V. P. Whittaker (1962) J. Anat. 76, 79-88).
# (in each case N=4, i.e. mean values±SEM from 4 independent series of experiments that were carried out in the form of triple parallel experiments).
# as §1
# [3] = system: phenylquinone-induced writhing reaction; assay: phenylquinone-induced writhing test in mice; assay type: in vivo; details: male NMRI mice, phenylquinone i.p. 10 minutes later; for inhibition in vivo at 10 mg/kg: Mus musculus, iv, 10 min, 10 mg/kg intravenously
# Experimental: Analgesic Effect in the Writhing Test in Mice
# The analgesic effect was investigated in the phenylquinone-induced writhing test in mice (as modified by I. C. Hendershot and J. Forsaith (1959) J. Pharmacol. Exp. Ther. 125, 237-240). Male NMRI mice weighing 25 to 30 g were used for the test. Groups of 10 animals each received by intraperitoineal application, for each substance dose, 0.3 ml/mouse of a 0.02% aqueous solution of phenylquinone (phenylbenzoquinone, Sigma Company, Deisenhofen; solution prepared with addition of 5% of ethanol and kept in a water bath at 45° C.) 10 minutes after intravenous administration of the test substances. The animals were placed individually in observation cages. The number of pain-induced stretching movements (so-called writhing reactions=straightening of the body together with stretching of the rear extremities) was measured by means of a push-button counter 5 to 20 minutes after administration of the phenylquinone. Animals that had received only physiological saline solution served as controls. All substances were tested in the standard dose of 10 mg/kg. The percentage inhibition (% inhibition) of the writhing reaction produced by a substance was calculated according to the following formula: [formula]
# [4] = system: binding site 2 of the sodium channel; assay: BTX binding, sodium channel; details: 10 μM, percentage inhibition, [3H]-batrachotoxin A20 α-benzoate 10 nM, rat cerebral cortex synaptosomes
# Experimental: Binding Investigations in the Sodium Channel
# Binding Site 2 (BTX Binding)
# The binding site 2 of the sodium channel is the so-called batrachotoxin (BTX) binding site. [^3H]-batrachlotoxin A20 α-benzoate (10 nM in the assay) was used as ligand. These ion channel particles (synaptosomes) were concentrated from rat cerebral cortex according to the procedure of Gray and Whittaker (E. G. Gray and V. P. Whittaker (1962) J. Anat. 76, 79-88). The radioactivity that is measured in the presence of veratridine (0.3 mM in the assay) is defined as non-specific binding. The material was incubated at 37° C. for 120 minutes. The assay conditions are carried out according to the protocol published by Pauwels, Leysen and Laduron (P. J. Pauwels, J. E. Leysen and P. M. Laduron (1986) Eur. J. Pharmacol. 124, 291-298).
# (N=3, i.e. mean values±SEM from 3 independent series of experiments that were carried out in the form of triple parallel experiments).
# as §1
Structure (SMILES),Diltiazem Binding at 10 μM [1] [%],inhibition at 1 µM [2] [%],inhibition in vivo at 10 mg/kg [3] [%],BTX Binding at 10 μM [4] [%],Diltiazem Binding at 10 μM ([1]; hydrochloride) [%],NA Uptake Inhibition at 1 μM ([2]; hydrochloride) [%],BTX Binding at 10 μM ([4]; hydrochloride) [%],NA Uptake Inhibition at 1 μM [2] [%],% Inhibition of the writhing reaction at 10 mg/kg intravenously [3] [%]
"CN(C)C(c1ccc(Br)cc1)C1CCCCC1(O)Cc1ccccc1.Cl (centres unmarked) [Example 61, 1-benzyl-2-[(4-bromophenyl)dimethylaminomethyl]cyclohexanol, hydrochloride]",89,100,90,98,–,–,–,–,–
"CN(C)C(c1ccc(Cl)cc1)C1CCCCC1(O)c1ccc(C(F)(F)F)cc1.Cl (centres unmarked) [Example 62, 2-[(4-chlorophenyl)dimethylaminomethyl]-1-(4-trifluoromethylphenyl)cyclohexanol, hydrochloride]",83,80,94,93,–,–,–,–,–
"CN(C)C(c1ccc(Cl)cc1)C1CCCCC1(O)Cc1cccc(C(F)(F)F)c1.Cl (centres unmarked) [Example 63, 2-[(4-chlorophenyl)dimethylaminomethyl]-1-(3-trifluoromethylbenzyl)cyclohexanol, hydrochloride]",95,94,86,99,–,–,–,–,–
"CN(C)C(c1cccc(Oc2ccccc2)c1)C1CCCCC1(O)Cc1ccc(C(C)(C)C)cc1.Cl (centres unmarked) [Example 64, 1-(4-tert.-butylbenzyl)-2-[dimethylamino-(3-phenoxyphenyl)methyl]cyclohexanol, hydrochloride]",87,36,88,100,–,–,–,–,–
"CN(C)C(c1ccc(C#N)cc1)C1CCCCC1(O)c1ccc(C(F)(F)F)cc1.Cl (centres unmarked) [Example 65, 4-{dimethylamino-[2-hydroxy-2-(4-trifluoromethylphenyl)cyclohexyl]methyl}benzonitrile, hydrochloride]",72,0,76,78,–,–,–,–,–
"Cc1ccccc1C(C1CCCCC1(O)c1ccccc1)N(C)C.Cl (centres unmarked) [Example 66, 2-(dimethylamino-o-tolylmethyl)-1-phenylcyclohexanol, hydrochloride]",–,–,91,–,65,15,89,–,–
"Cc1ccccc1C(C1CCCCC1(O)Cc1ccccc1)N(C)C.Cl (centres unmarked) [Example 67, 1-benzyl-2-(dimethylamino-o-tolylmethyl)cyclohexanol, hydrochloride]",98,83,84,97,–,–,–,–,–
"CN(C)C(c1ccccc1)C1CCCCC1(O)CCCc1ccccc1.Cl (centres unmarked) [Example 68, 2-(dimethylaminophenylmethyl)-1-(3-phenylpropyl)cyclohexanol, hydrochloride]",88,49,55,98,–,–,–,–,–
"CN(C)C(c1ccccc1Cl)C1CCCCC1(O)CCc1ccc(F)cc1.Cl (centres unmarked) [Example 69, 2-[(2-chlorophenyl)dimethylaminomethyl]-1-[2-(4-fluorophenyl)ethyl]cyclohexanol, hydrochloride]",93,76,45,96,–,–,–,–,–
"CN(C)C(c1cccs1)C1CCCCC1(O)Cc1cccc(C(F)(F)F)c1.Cl (centres unmarked) [Example 70, 2-[dimethylaminothiophen-2-ylmethyl]-1-(3-trifluoromethylbenzyl)cyclohexanol, hydrochloride]",91,–,–,93,–,–,–,74,98
"COC(=O)c1ccc(C2(O)CCCCC2C(c2ccccc2)N(C)C)cc1.Cl (centres unmarked) [Example 71, Methyl-4-[2-(dimethylaminophenylmethyl)-1-hydroxycyclohexyl]benzoate, hydrochloride]",74,88,55,81,–,–,–,–,–
"CN(C)C(c1ccccc1)C1CC(c2ccccc2)CCC1(O)Cc1ccccc1.Cl (centres unmarked) [Example 72, 1-benzyl-2-(dimethylaminophenylmethyl)-4-phenylcyclohexanol, hydrochloride]",97,64,89,99,–,–,–,–,–
CN(C)C(c1ccccc1)C1CCCCC1(O)c1ccc(Br)cc1.Cl (centres unmarked) [Example 73],89,–,–,93,–,–,–,61,75
"CN(C)C(c1ccccc1)C1CCCCC1(O)c1cccc2ccccc12.Cl (centres unmarked) [Example 74, 2-(dimethylaminophenylmethyl)-1-naphthalene-1-ylcyclohexanol, hydrochloride]",83,24,37,93,–,–,–,–,–
"CSc1ccccc1C1(O)CCCCC1C(c1ccccc1)N(C)C.Cl (centres unmarked) [Example 75, 2-(dimethylaminophenylmethyl)-1-(2-methylsulfanylphenyl)cyclohexanol, hydrochloride]",89,0,57,93,–,–,–,–,–
"CN(C)C(c1ccc2ccccc2c1)C1CCCCC1(O)Cc1ccccc1.Cl (centres unmarked) [Example 76, 1-benzyl-2-(dimethylaminonaphthalene-2-ylmethyl)cyclohexanol, hydrochloride]",73,80,60,90,–,–,–,–,–
"CN(C)C(c1c(F)c(F)c(F)c(F)c1F)C1CCCCC1(O)Cc1ccccc1.Cl (centres unmarked) [Example 77, 1-benzyl-2-(dimethylaminopentafluorophenylmethyl)cyclohexanol, hydrochloride]",27,27,54,56,–,–,–,–,–
"Cl.OC1(Cc2ccccc2)CCCCC1C(c1ccccc1)N1CCCCC1 (centres unmarked) [Example 78, 1-benzyl-2-(phenylpiperidin-1-ylmethyl)cyclohexanol, hydrochloride]",95,84,73,96,–,–,–,–,–
CN(C)C(c1ccccc1)C1CCCCC1(O)c1ccc(C(F)(F)F)cc1.Cl (centres unmarked) [Example 79],67,–,–,93,–,–,–,58,71
CCC(O)(Cc1ccc(C(C)(C)C)cc1)C(C)C(c1ccccc1)N(C)C.Cl (centres unmarked) [Example 80],100,–,–,100,–,–,–,18,61
